Values after ≈ are worked out from the molar mass of the structure shown.
Tests used:
Format in all cases: functional
Escherichia coli = assay: Antibacterial activity against Escherichia coli NIH JC2
Pseudomonas aeruginosa [1] = assay: Antibacterial activity against Pseudomonas aeruginosa GN315
Pseudomonas aeruginosa [2] = assay: Antibacterial activity against Pseudomonas aeruginosa N101
Pseudomonas aeruginosa [3] = assay: Antibacterial activity against Pseudomonas aeruginosa PA01
Staphylococcus aureus [4] = assay: Antibacterial activity against methicillin-resistant Staphylococcus aureus MSC03571
Staphylococcus aureus [5] = assay: Antibacterial activity against methicillin-resistant Staphylococcus aureus MF490
Staphylococcus aureus [6] = assay: Antibacterial activity against Staphylococcus aureus 209P JC-1
Pseudomonas aeruginosa [7] = assay: Antibacterial activity against Pseudomonas aeruginosa isolates
Staphylococcus aureus [8] = assay: Antibacterial activity against methicillin resistant Staphylococcus aureus isolates

With `NCC[C@H](O)C(=O)N[C@@H]1C[C@H](N)[C@@H](O[C@H]2O[C@H](CN)CC[C@H]2N)[C@@H](F)[C@H]1O[C@H]1O[C@H](CO)[C@H](O)[C@H](N)[C@H]1O` the MIC (Escherichia coli) was 1 µg/mL (≈ 1.8 µM), the MIC (Pseudomonas aeruginosa [1]) was 32 µg/mL (≈ 57.7 µM) and the MIC (Pseudomonas aeruginosa [2]) was 0.5 µg/mL (≈ 0.902 µM). It also gave an MIC (Pseudomonas aeruginosa [3]) of 2 µg/mL (≈ 3.61 µM), an MIC (Staphylococcus aureus [4]) of 2 µg/mL (≈ 3.61 µM) and an MIC (Staphylococcus aureus [5]) of 4 µg/mL (≈ 7.21 µM). The MIC (Staphylococcus aureus [6]) was 0.06 µg/mL (≈ 0.108 µM).

For `NCC[C@H](O)C(=O)N[C@@H]1C[C@H](N)[C@@H](O[C@H]2O[C@H](CN)CC[C@H]2N)[C@@H](N)[C@H]1O[C@H]1O[C@H](CO)[C@H](O)[C@H](N)[C@H]1O`, the MIC (Escherichia coli) was 2 µg/mL (≈ 3.63 µM), the MIC (Pseudomonas aeruginosa [1]) was > 64 µg/mL and the MIC (Pseudomonas aeruginosa [2]) was 1 µg/mL (≈ 1.81 µM). It also gave an MIC (Pseudomonas aeruginosa [3]) of 4 µg/mL (≈ 7.25 µM), an MIC (Staphylococcus aureus [4]) of 4 µg/mL (≈ 7.25 µM) and an MIC (Staphylococcus aureus [5]) of 4 µg/mL (≈ 7.25 µM). It also gave an MIC (Staphylococcus aureus [6]) of 0.25 µg/mL (≈ 0.453 µM).

For `NCC[C@H](O)C(=O)N[C@@H]1C[C@H](N)[C@@H](O[C@H]2O[C@H](CN)CC[C@H]2N)[C@H](O)[C@H]1O[C@H]1O[C@H](CO)[C@H](O)[C@H](N)[C@H]1O`, the MIC (Escherichia coli) was 1 µg/mL (≈ 1.81 µM), the MIC (Pseudomonas aeruginosa [1]) was 32 µg/mL (≈ 57.9 µM) and the MIC (Pseudomonas aeruginosa [2]) was 0.25 µg/mL (≈ 0.452 µM). It also gave an MIC (Pseudomonas aeruginosa [3]) of 4 µg/mL (≈ 7.24 µM), an MIC (Staphylococcus aureus [4]) of 16 µg/mL (≈ 29 µM) and an MIC (Staphylococcus aureus [5]) of 32 µg/mL (≈ 57.9 µM). For the same compound, the MIC (Staphylococcus aureus [6]) was 0.13 µg/mL (≈ 0.235 µM).

Work on `[N-]=[N+]=N[C@H]1[C@@H](O[C@H]2O[C@H](CO)[C@H](O)[C@H](N)[C@H]2O)[C@H](NC(=O)[C@@H](O)CCN)C[C@H](N)[C@H]1O[C@H]1O[C@H](CN)CC[C@H]1N` yielded an MIC (Escherichia coli) of 1 µg/mL (≈ 1.73 µM), an MIC (Pseudomonas aeruginosa [1]) of 128 µg/mL (≈ 222 µM) and an MIC (Pseudomonas aeruginosa [2]) of 0.5 µg/mL (≈ 0.866 µM). For the same compound, the MIC (Pseudomonas aeruginosa [3]) was 8 µg/mL (≈ 13.8 µM), the MIC (Staphylococcus aureus [4]) was 4 µg/mL (≈ 6.92 µM) and the MIC (Staphylococcus aureus [5]) was 4 µg/mL (≈ 6.92 µM). The MIC (Staphylococcus aureus [6]) was 0.25 µg/mL (≈ 0.433 µM).

`NCC[C@H](O)C(=O)N[C@@H]1C[C@H](N)[C@@H](O[C@H]2O[C@H](CN)CC[C@H]2N)[C@H](O)[C@H]1O[C@H]1O[C@H](CO)[C@H](N)[C@H](N)[C@H]1O` was tested, and the MIC (Escherichia coli) was 16 µg/mL (≈ 29 µM), the MIC (Pseudomonas aeruginosa [1]) was > 128 µg/mL and the MIC (Pseudomonas aeruginosa [2]) was 8 µg/mL (≈ 14.5 µM). For the same compound, the MIC (Pseudomonas aeruginosa [3]) was 64 µg/mL (≈ 116 µM), the MIC (Staphylococcus aureus [4]) was > 128 µg/mL and the MIC (Staphylococcus aureus [5]) was > 128 µg/mL. The MIC (Staphylococcus aureus [6]) was 4 µg/mL (≈ 7.25 µM).

With `NCC[C@H](O)C(=O)N[C@@H]1C[C@H](N)[C@@H](O[C@H]2O[C@H](CN)CC[C@H]2N)[C@H](O)[C@H]1O[C@H]1O[C@H](CO)C[C@H](N)[C@H]1O` the MIC (Escherichia coli) was 2 µg/mL (≈ 3.73 µM), the MIC (Pseudomonas aeruginosa [1]) was 32 µg/mL (≈ 59.6 µM) and the MIC (Pseudomonas aeruginosa [2]) was 0.5 µg/mL (≈ 0.932 µM). For the same compound, the MIC (Pseudomonas aeruginosa [3]) was 4 µg/mL (≈ 7.45 µM), the MIC (Staphylococcus aureus [4]) was 64 µg/mL (≈ 119 µM) and the MIC (Staphylococcus aureus [5]) was > 64 µg/mL. For the same compound, the MIC (Staphylococcus aureus [6]) was 0.13 µg/mL (≈ 0.242 µM).

Compound `NCC[C@H](O)C(=O)N[C@@H]1C[C@H](N)[C@@H](O[C@H]2O[C@H](CN)CC[C@H]2N)[C@@H](O)[C@H]1O[C@H]1O[C@H](CO)[C@H](O)[C@H](N)[C@H]1O` has an MIC50 (Pseudomonas aeruginosa [7]) of 1 µg/mL (≈ 1.81 µM), an MIC90 (Pseudomonas aeruginosa [7]) of 4 µg/mL (≈ 7.24 µM) and an MIC (Escherichia coli) of 0.5 µg/mL (≈ 0.905 µM). The MIC (Pseudomonas aeruginosa [1]) was 16 µg/mL (≈ 29 µM), the MIC (Pseudomonas aeruginosa [2]) was 0.25 µg/mL (≈ 0.452 µM) and the MIC50 (Staphylococcus aureus [8]) was 0.25 µg/mL (≈ 0.452 µM). The MIC90 (Staphylococcus aureus [8]) was 0.25 µg/mL (≈ 0.452 µM), the MIC (Pseudomonas aeruginosa [3]) was 1 µg/mL (≈ 1.81 µM) and the MIC (Staphylococcus aureus [4]) was 1 µg/mL (≈ 1.81 µM). For the same compound, the MIC (Staphylococcus aureus [5]) was 1 µg/mL (≈ 1.81 µM) and the MIC (Staphylococcus aureus [6]) was 0.06 µg/mL (≈ 0.109 µM).

In the case of `NCC[C@H](O)C(=O)N[C@@H]1C[C@H](N)[C@@H](O[C@H]2O[C@H](CN)CC[C@H]2N)[C@H](O)[C@H]1O[C@H]1O[C@@H](CO)[C@@H](O)[C@H](N)[C@H]1O`, the MIC (Escherichia coli) is reported as 1 µg/mL (≈ 1.81 µM), the MIC (Pseudomonas aeruginosa [1]) is reported as 8 µg/mL (≈ 14.5 µM) and the MIC (Pseudomonas aeruginosa [2]) is reported as 0.25 µg/mL (≈ 0.452 µM). For the same compound, the MIC (Pseudomonas aeruginosa [3]) was 2 µg/mL (≈ 3.62 µM), the MIC (Staphylococcus aureus [4]) was 2 µg/mL (≈ 3.62 µM) and the MIC (Staphylococcus aureus [5]) was 2 µg/mL (≈ 3.62 µM). It also gave an MIC (Staphylococcus aureus [6]) of 0.06 µg/mL (≈ 0.109 µM).

With `NCC[C@H](O)C(=O)N[C@@H]1C[C@H](N)[C@@H](O[C@H]2O[C@H](CN)CC[C@H]2N)[C@@H](Cl)[C@H]1O[C@H]1O[C@H](CO)[C@H](O)[C@H](N)[C@H]1O` the MIC (Escherichia coli) was 1 µg/mL (≈ 1.75 µM), the MIC (Pseudomonas aeruginosa [1]) was > 32 µg/mL and the MIC (Pseudomonas aeruginosa [2]) was 0.5 µg/mL (≈ 0.876 µM). It also gave an MIC (Pseudomonas aeruginosa [3]) of 4 µg/mL (≈ 7 µM), an MIC (Staphylococcus aureus [4]) of 2 µg/mL (≈ 3.5 µM) and an MIC (Staphylococcus aureus [5]) of 2 µg/mL (≈ 3.5 µM). The MIC (Staphylococcus aureus [6]) was 0.13 µg/mL (≈ 0.228 µM).

Compound `CNC[C@@H]1CC[C@@H](N)[C@@H](O[C@H]2[C@@H](O)[C@@H](O[C@H]3O[C@H](CO)[C@H](O)[C@H](N)[C@H]3O)[C@H](NC(=O)[C@@H](O)CCN)C[C@@H]2N)O1` has an MIC (Escherichia coli) of 1 µg/mL (≈ 1.76 µM), an MIC (Pseudomonas aeruginosa [1]) of 4 µg/mL (≈ 7.06 µM) and an MIC (Pseudomonas aeruginosa [2]) of 0.5 µg/mL (≈ 0.882 µM). It also gave an MIC (Pseudomonas aeruginosa [3]) of 2 µg/mL (≈ 3.53 µM), an MIC (Staphylococcus aureus [4]) of 1 µg/mL (≈ 1.76 µM) and an MIC (Staphylococcus aureus [5]) of 4 µg/mL (≈ 7.06 µM). It also gave an MIC (Staphylococcus aureus [6]) of 0.13 µg/mL (≈ 0.229 µM).

Compound `[N-]=[N+]=N[C@@H]1[C@H](N)[C@@H](O)[C@@H](O[C@@H]2[C@@H](O)[C@H](O[C@H]3O[C@H](CN)CC[C@H]3N)[C@@H](N)C[C@H]2NC(=O)[C@@H](O)CCN)O[C@@H]1CO` has an MIC (Escherichia coli) of 2 µg/mL (≈ 3.46 µM), an MIC (Pseudomonas aeruginosa [1]) of 64 µg/mL (≈ 111 µM) and an MIC (Pseudomonas aeruginosa [2]) of 0.5 µg/mL (≈ 0.866 µM). For the same compound, the MIC (Pseudomonas aeruginosa [3]) was 16 µg/mL (≈ 27.7 µM), the MIC (Staphylococcus aureus [4]) was 128 µg/mL (≈ 222 µM) and the MIC (Staphylococcus aureus [5]) was > 128 µg/mL. For the same compound, the MIC (Staphylococcus aureus [6]) was 0.13 µg/mL (≈ 0.225 µM).

In the case of `NCC[C@H](O)C(=O)N[C@@H]1C[C@H](N)[C@@H](O[C@H]2O[C@H](CN)CC[C@H]2N)[C@H](O)[C@H]1O[C@H]1O[C@H](CO)[C@@H](O)[C@H](N)[C@H]1O` [ARBEKACIN], the MIC50 (Pseudomonas aeruginosa [7]) is reported as 2 µg/mL (≈ 3.62 µM), the MIC90 (Pseudomonas aeruginosa [7]) is reported as 16 µg/mL (≈ 29 µM) and the MIC (Escherichia coli) is reported as 1 µg/mL (≈ 1.81 µM). It also gave an MIC (Pseudomonas aeruginosa [1]) of 16 µg/mL (≈ 29 µM), an MIC (Pseudomonas aeruginosa [2]) of 0.25 µg/mL (≈ 0.452 µM) and an MIC50 (Staphylococcus aureus [8]) of 0.5 µg/mL (≈ 0.905 µM). For the same compound, the MIC90 (Staphylococcus aureus [8]) was 2 µg/mL (≈ 3.62 µM), the MIC (Pseudomonas aeruginosa [3]) was 2 µg/mL (≈ 3.62 µM) and the MIC (Staphylococcus aureus [4]) was 16 µg/mL (≈ 29 µM). For the same compound, the MIC (Staphylococcus aureus [5]) was 64 µg/mL (≈ 116 µM) and the MIC (Staphylococcus aureus [6]) was 0.06 µg/mL (≈ 0.109 µM).
